The record followed here is patent US20230303540A1 (Merck Sharp & Dohme LLC, priority 2020, published 2023).

The target of the experiment is GST-tagged truncated human mutant G2019S LRRK2 (Homo sapiens, UniProt Q5S007, G2019S). Briefly: LRRK2 G2019S Km ATP LanthaScreen assay. Type of experiment: biochemical. Particulars: 134 μM ATP (Km ATP), LRRKtide substrate, mean IC50 values; read-out: LRRK2 pIC50 (converted). Summed up: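 LanthaScreen TR-FRET read with fluorescein-LRRKtide and 134 μM ATP (Km) in Tris pH 8.5/10 mM MgCl2 buffer. The enzyme was preincubated 15 min with compound at room temperature, and the reaction ran 90 min at ambient temperature. Stopped with EDTA plus Tb anti-phospho-LRRKtide antibody; the 520/495 nm ratio gave a 4-parameter logistic IC50, mean of several runs.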
A general note: TR-FRET usually uses a lanthanide donor and a delayed reading to cut background.
Consider `Cc1cc(Nc2ncc3cc(Cl)c(N4CCN(C5(C)COCC5O)[C@@H](C)C4)cc3n2)n(C2CC2)n1` (single isomer, unassigned) [Ex-13.9, 4-((S or R) (3S,4S) or (3R,4R)-4-(6-chloro-2-((1-cyclopropyl-3-methyl-1H-pyrazol-5-yl)amino)quinazolin-7-yl)-2-methylpiperazin-1-yl)-4-methyltetrahydrofuran-3-ol], for which the IC50 was 97.5 nM.
To `CCn1ncc(Nc2ncc3ccc(N4C(=O)[C@@H]5CC[C@H]4C5)nc3n2)c1C` (single isomer, unassigned) [Ex-15.3, (1S,4R) or (1R,4S)-2-{2-[(1-ethyl-5-methyl-1H-pyrazol-4-yl)amino]pyrido[2,3-d]pyrimidin-7-yl}-2-azabicyclo[2.2.1]heptan-3-one] belongs 4.43 nM; to `CCn1ncc(Nc2ncc3ccc(N4C(=O)[C@H]5CC[C@@H]4C5)nc3n2)c1C` (single isomer, unassigned) [Ex-15.4, (1S,4R) or (1R,4S)-2-{2-[(1-ethyl-5-methyl-1H-pyrazol-4-yl)amino]pyrido[2,3-d]pyrimidin-7-yl}-2-azabicyclo[2.2.1]heptan-3-one], 12.5 nM; to `O[C@@H]1COC[C@@H]1N1CCN(c2nc3nc(Nc4cnn(C5CC5)c4Cl)ncc3cc2Cl)CC1` (single isomer, unassigned) [Ex-16.1, (3S,4S) or (3R, 4R)-4-(4-(6-Chloro-2-((5-chloro-1-cyclopropyl-1H-pyrazol-4-yl)amino)pyrido[2,3-d]pyrimidin-7-yl)piperazin-1-yl)tetrahydrofuran-3-ol], 15.6 nM.
As to `O[C@@H]1COC[C@@H]1N1CCN(c2nc3nc(Nc4cnn(C5CC5)c4Cl)ncc3cc2Cl)CC1` (single isomer, unassigned) [Ex-16.2, (3S,4S) or (3R, 4R)-4-(4-(6-Chloro-2-((5-chloro-1-cyclopropyl-1H-pyrazol-4-yl)amino)pyrido[2,3-d]pyrimidin-7-yl)piperazin-1-yl)tetrahydrofuran-3-ol], the IC50 is 126 nM.
Consider `Cc1c(Nc2ncc3cc(Cl)c(N4CCN(C5COCC5O)CC4)nc3n2)cnn1C1CC1` (single isomer, unassigned) [Ex-16.3, (3S,4S) or (3R,4R)-4-(4-{6-chloro-2-[(1-cyclopropyl-5-methyl-1H-pyrazol-4-yl)amino]pyrido[2,3-d]pyrimidin-7-yl}piperazin-1-yl)oxolan-3-ol], for which the IC50 was 4.55 nM.
To `Cc1c(Nc2ncc3cc(Cl)c(N4CCN(C5COCC5O)CC4)nc3n2)cnn1C1CC1` (single isomer, unassigned) [Ex-16.4, (3S,4S) or (3R,4R)-4-(4-{6-chloro-2-[(1-cyclopropyl-5-methyl-1H-pyrazol-4-yl)amino]pyrido[2,3-d]pyrimidin-7-yl}piperazin-1-yl)oxolan-3-ol] belongs 83.8 nM; to `C[C@H]1COC(=O)N1c1ccc2cnc(Nc3cnn(C4CCN(C5COC5)CC4F)c3Cl)nc2c1` (stereo in doubt) [Ex-7.3, (4S)-3-[2-({5-chloro-1-[(3S,4S)-3-fluoro-1-(oxetan-3-yl)piperidin-4-yl]-1H-pyrazol-4-yl}amino)quinazolin-7-yl]-4-methyl-1,3-oxazolidin-2-one], 0.976 nM; to `Cc1c(Nc2ncc3cc(Cl)c(N4CCN(C)C(C)(C)C4)cc3n2)cnn1CC(F)F` [Ex-1.3], 180 nM.
Then `F[C@H]1CN(C2COC2)CC[C@@H]1n1ncc(Nc2ncc3cc(Cl)c(N4CCC5(CC4)COC5)cc3n2)c1Cl` [Ex-1.4, 6-chloro-N-{5-chloro-1-[(3S,4S)-3-fluoro-1-(oxetan-3-yl)piperidin-4-yl]-1H-pyrazol-4-yl}-7-(2-oxa-7-azaspiro[3.5]nonan-7-yl)quinazolin-2-amine], with 1.54 nM; and `Cc1c(Nc2ncc3ccc(N4[C@H](C)CC[C@H]4C)cc3n2)cnn1CCF` [Ex-1.12, (2R,5S or 2,5R)-7-[2,5-dimethylpyrrolidin-1-yl]-N-[1-(2-fluoroethyl)-5-methyl-1H-pyrazol-4-yl]quinazolin-2-amine], with 20.2 nM; and `CN1CCC2(CCN(c3cc4nc(Nc5cnn(CC(C)(C)O)c5Cl)ncc4cc3Cl)C2)C1` (stereo not drawn) [Ex-1.13, 1-(5-chloro-4-{[6-chloro-7-(7-methyl-2,7-diazaspiro[4.4]nonan-2-yl)quinazolin-2-yl]amino}-1H-pyrazol-1-yl)-2-methylpropan-2-ol], with 21 nM.
For `CC1(O)CCN(c2cc3nc(Nc4cnn(CC(F)F)c4Cl)ncc3cc2Cl)C1` (stereo not drawn) [Ex-1.14, 1-(6-chloro-2-{[5-chloro-1-(2,2-difluoroethyl)-1H-pyrazol-4-yl]amino}quinazolin-7-yl)-3-methylpyrrolidin-3-ol], the IC50 was 4.71 nM.
To `OCC1CCN(c2cc3nc(Nc4cnn(CC(F)F)c4Cl)ncc3cc2Cl)C1` (stereo not drawn) [Ex-1.15, [1-(6-chloro-2-{[5-chloro-1-(2,2-difluoroethyl)-1H-pyrazol-4-yl]amino}quinazolin-7-yl)pyrrolidin-3-yl]methanol] belongs 5.49 nM.
On to `FC(F)Cn1ncc(Nc2ncc3cc(Cl)c(N4CCC(N5CCCC5)CC4)cc3n2)c1Cl` [Ex-1.16, 6-chloro-N-[5-chloro-1-(2,2-difluoroethyl)-1H-pyrazol-4-yl]-7-[4-(pyrrolidin-1-yl)piperidin-1-yl]quinazolin-2-amine], for which the IC50 was 16 nM.
To `O[C@H]1CCN(c2cc3nc(Nc4cnn(CC(F)F)c4Cl)ncc3cc2Cl)C1` [Ex-1.17, (3S)-1-(6-chloro-2-{[5-chloro-1-(2,2-difluoroethyl)-1H-pyrazol-4-yl]amino}quinazolin-7-yl)pyrrolidin-3-ol] belongs 9.26 nM; to `OC1CN(c2cc3nc(Nc4cnn(CC(F)F)c4Cl)ncc3cc2Cl)C1` [Ex-1.18, 1-(6-chloro-2-{[5-chloro-1-(2,2-difluoroethyl)-1H-pyrazol-4-yl]amino}quinazolin-7-yl)azetidin-3-ol], 18.9 nM.
Then `OC[C@@H]1[C@H]2CN(c3cc4nc(Nc5cnn(CC(F)F)c5Cl)ncc4cc3Cl)C[C@@H]12` [Ex-1.19, [(1R,5S,6R)-3-(6-chloro-2-{[5-chloro-1-(2,2-difluoroethyl)-1H-pyrazol-4-yl]amino}quinazolin-7-yl)-3-azabicyclo[3.1.0]hexan-6-yl]methanol], with 4.87 nM.
To `OC[C@H]1CCN(c2cc3nc(Nc4cnn(CC(F)F)c4Cl)ncc3cc2Cl)C1` [Ex-1.20, [(3S)-1-(6-chloro-2-{[5-chloro-1-(2,2-difluoroethyl)-1H-pyrazol-4-yl]amino}quinazolin-7-yl)pyrrolidin-3-yl]methanol] belongs 8.23 nM.
On to `OC1CCN(c2cc3nc(Nc4cnn(CC(F)F)c4Cl)ncc3cc2Cl)CC1` [Ex-1.21, 1-(6-chloro-2-{[5-chloro-1-(2,2-difluoroethyl)-1H-pyrazol-4-yl]amino}quinazolin-7-yl)piperidin-4-ol], for which the IC50 was 6.09 nM.
To `OC1CN(C2CCN(c3cc4nc(Nc5cnn(CC(F)F)c5Cl)ncc4cc3Cl)CC2)C1` [Ex-1.22, 1-[1-(6-chloro-2-{[5-chloro-1-(2,2-difluoroethyl)-1H-pyrazol-4-yl]amino}quinazolin-7-yl)piperidin-4-yl]azetidin-3-ol] belongs 6.94 nM; to `CN(C)[C@@H]1CCN(c2cc3nc(Nc4cnn(CC(F)F)c4Cl)ncc3cc2Cl)C1` [Ex-1.23, 6-chloro-N-[5-chloro-1-(2,2-difluoroethyl)-1H-pyrazol-4-yl]-7-[(3R)-3-(dimethylamino)pyrrolidin-1-yl]quinazolin-2-amine], 32.6 nM; to `Clc1cc2cnc(Nc3cnn(C4CC4)c3Cl)nc2cc1N1CCN(C2COC2)CC1` [Ex-1.24, 6-chloro-N-(5-chloro-1-cyclopropyl-1H-pyrazol-4-yl)-7-[4-(oxetan-3-yl)piperazin-1-yl]quinazolin-2-amine], 2.59 nM.
To `FC1(F)CN(C2CCN(c3cc4nc(Nc5cnn(C6CC6)c5Cl)ncc4cc3Cl)CC2)C1` [Ex-1.25, 6-chloro-N-(5-chloro-1-cyclopropyl-1H-pyrazol-4-yl)-7-[4-(3,3-difluoroazetidin-1-yl)piperidin-1-yl]quinazolin-2-amine] belongs 4.33 nM.
Then `Clc1cc2cnc(Nc3cnn(C4CC4)c3Cl)nc2cc1N1CCn2cnnc2C1` [Ex-1.26, 6-chloro-N-(5-chloro-1-cyclopropyl-1H-pyrazol-4-yl)-7-(5,6-dihydro[1,2,4]triazolo[4,3-a]pyrazin-7(8H)-yl)quinazolin-2-amine], with 1.49 nM.
As to `FC1CN(C2CCN(c3cc4nc(Nc5cnn(C6CC6)c5Cl)ncc4cc3Cl)CC2)C1` [Ex-1.27, 6-chloro-N-(5-chloro-1-cyclopropyl-1H-pyrazol-4-yl)-7-[4-(3-fluoroazetidin-1-yl)piperidin-1-yl]quinazolin-2-amine], the IC50 is 0.778 nM.
Then `Clc1cc2cnc(Nc3cnn(C4CC4)c3Cl)nc2cc1N1CCC(N2CCC2)CC1` [Ex-1.28, 7-[4-(azetidin-1-yl)piperidin-1-yl]-6-chloro-N-(5-chloro-1-cyclopropyl-1H-pyrazol-4-yl)quinazolin-2-amine], with 3.31 nM; and `N#CCCN1CCN(c2cc3nc(Nc4cnn(C5CC5)c4Cl)ncc3cc2Cl)CC1` [Ex-1.29, 3-(4-{6-chloro-2-[(5-chloro-1-cyclopropyl-1H-pyrazol-4-yl)amino]quinazolin-7-yl}piperazin-1-yl)propanenitrile], with 2.78 nM.
Then `CC(=O)N1CCN(c2cc3nc(Nc4cnn(C5CC5)c4Cl)ncc3cc2Cl)CC1` [Ex-1.30, 1-(4-{6-chloro-2-[(5-chloro-1-cyclopropyl-1H-pyrazol-4-yl)amino]quinazolin-7-yl}piperazin-1-yl)ethan-1-one], with 7.16 nM.
Then `CC(C)(O)CN1CCN(c2cc3nc(Nc4cnn(C5CC5)c4Cl)ncc3cc2Cl)CC1` [Ex-1.31, 1-(4-{6-chloro-2-[(5-chloro-1-cyclopropyl-1H-pyrazol-4-yl)amino]quinazolin-7-yl}piperazin-1-yl)-2-methylpropan-2-ol], with 10.1 nM.
